In the supplement of paper PMC10307832:

Columns and labels:
Assay in all cases: relative viability (nuclei count vs DMSO), 5 days (fraction); higher = more cells survive
[1] = compound: C1COCCN1C2=NC(=NC3=C2OC4=C3C=CC=N4)C5=CC(=CC=C5)NC(=O)C6=CN=C(C=C6)N + CC(=O)c1c(C)c2cnc(Nc3ccc(N4CCNCC4)cn3)nc2n(C2CCCC2)c1=O [Palbociclib] (partner 0.5 µM)
Summary of the method: (§1)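 Medians of duplicate plates are given as relative viability. That measure is the nuclei count in treated wells divided by the count in vehicle wells. Counts were taken on 4× images of lung cancer cell lines in 1536-well plates, 5 days after pin-tool dosing the day after seeding with one drug alone or a fixed anchor-drug dose plus five library-drug doses (not always all listed) in √10 steps.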

[2] = compound: C1COCCN1C2=NC(=NC3=C2OC4=C3C=CC=N4)C5=CC(=CC=C5)NC(=O)C6=CN=C(C=C6)N + Cc1nc(Nc2ncc(C(=O)Nc3c(C)cccc3Cl)s2)cc(N2CCN(CCO)CC2)n1 [Dasatinib] (partner 0.075 µM)
Summary of the method: as §1

[3] = compound: CN1CCC(CNc2ccc3ncc(-c4cccc(OC(F)(F)F)c4)n3n2)CC1 [SGI-1776] + COc1cccc2cc(-c3nc([C@H]4CC[C@H](C(=O)O)CC4)n4ncnc(N)c34)[nH]c12 [OSI-027] (partner 0.5 µM)
Summary of the method: as §1

[4] = compound: CN1CCC(CNc2ccc3ncc(-c4cccc(OC(F)(F)F)c4)n3n2)CC1 [SGI-1776] + NC(=O)Nc1cc(-c2cccc(F)c2)sc1C(=O)N[C@H]1CCCNC1 [AZD7762] (partner 0.2 µM)
Summary of the method: as §1

Cell Line | relative viability ([1]; first compound 0.02 µM) | relative viability ([1]; first compound 0.06325 µM) | relative viability ([1]; first compound 0.2 µM) | relative viability ([1]; first compound 0.6325 µM) | relative viability ([1]; first compound 2 µM) | relative viability ([2]; first compound 0.02 µM) | relative viability ([2]; first compound 0.2 µM) | relative viability ([2]; first compound 0.6325 µM) | relative viability ([2]; first compound 2 µM) | relative viability ([3]; first compound 0.08 µM) | relative viability ([3]; first compound 0.8 µM) | relative viability ([3]; first compound 2.53 µM) | relative viability ([3]; first compound 8 µM) | relative viability ([4]; first compound 0.08 µM) | relative viability ([4]; first compound 0.8 µM) | relative viability ([4]; first compound 2.53 µM) | relative viability ([4]; first compound 8 µM) | relative viability ([2]; first compound 0.06325 µM)
NCI-H23 | 0.622 | 0.555 | 0.457 | 0.524 | 0.225 | 0.82 | 0.582 | 0.724 | 0.482 | 0.676 | 0.547 | 0.724 | 0.437 | 0.252 | 0.278 | 0.281 | 0.235 | –
NCI-H322M | 0.485 | 0.536 | 0.54 | 0.48 | 0.384 | 0.251 | 0.241 | 0.274 | 0.234 | 0.514 | 0.54 | 0.661 | 0.475 | 0.631 | 0.568 | 0.524 | 0.646 | 0.251
NCI-H358 | 0.119 | 0.14 | 0.137 | 0.145 | 0.108 | – | 0.109 | 0.152 | 0.15 | 0.747 | 0.856 | 0.663 | 0.304 | 0.465 | 0.467 | 0.456 | 0.348 | 0.134
NCI-H441 | 0.208 | 0.178 | 0.198 | 0.175 | 0.198 | 0.685 | 0.609 | 0.486 | 0.415 | 0.58 | 0.559 | 0.743 | 0.388 | 1.25 | 1.2 | 1.07 | 1.13 | 0.783
NCI-H460 | 0.149 | 0.186 | 0.112 | 0.146 | 0.0961 | 0.521 | 0.417 | 0.414 | 0.185 | 0.68 | 0.587 | 0.646 | 0.255 | 0.717 | 0.669 | 0.572 | 0.707 | 0.361
NCI-H522 | 0.798 | 0.984 | 0.884 | 0.743 | 0.838 | 0.936 | 0.899 | 0.877 | 0.837 | 0.713 | 0.811 | 0.749 | 0.569 | 0.819 | 0.747 | 0.789 | 0.613 | 0.983
NCI-H647 | 0.408 | 0.433 | 0.38 | 0.279 | 0.25 | 0.196 | 0.174 | 0.164 | 0.0709 | 0.712 | 0.613 | 0.559 | 0.301 | 0.479 | 0.49 | 0.414 | 0.319 | 0.2
NCI-H650 | 0.308 | 0.325 | 0.35 | 0.345 | 0.287 | 0.475 | 0.416 | 0.442 | 0.385 | 0.565 | 0.489 | 0.501 | 0.378 | 1.21 | 0.941 | 0.994 | 1.17 | 0.453
NCI-H727 | 0.579 | 0.592 | 0.613 | 0.666 | 0.77 | 0.388 | 0.295 | 0.442 | 0.345 | 0.543 | 0.627 | 0.615 | 0.438 | 0.696 | 0.739 | 0.807 | 0.583 | 0.351
NCI-H838 | 0.194 | 0.212 | 0.195 | 0.197 | 0.175 | 0.291 | 0.271 | 0.314 | 0.249 | 0.414 | 0.401 | 0.308 | 0.246 | 0.944 | 0.961 | 0.932 | 0.916 | 0.299
NCI-H1355 | 0.371 | 0.385 | 0.423 | 0.609 | 0.354 | 0.755 | 0.71 | 0.659 | 0.5 | 0.46 | 0.486 | 0.402 | 0.305 | 0.782 | 0.772 | 0.657 | 0.642 | 0.79
NCI-H1395 | 0.602 | 0.597 | 0.617 | 0.592 | 0.645 | 0.388 | 0.394 | 0.353 | 0.369 | 0.78 | 0.582 | 0.627 | 0.448 | 0.424 | 0.432 | 0.393 | 0.402 | 0.359
NCI-H1437 | 0.3 | 0.312 | 0.269 | 0.295 | 0.2 | 0.33 | 0.272 | 0.385 | 0.264 | 0.913 | 0.976 | 0.819 | 0.806 | 1.11 | 1.13 | 1.07 | 1.02 | 0.431
NCI-H1651 | 0.51 | 0.509 | 0.499 | 0.495 | 0.395 | 0.482 | 0.39 | 0.4 | 0.22 | 0.81 | 0.683 | 0.677 | 0.529 | 0.537 | 0.519 | 0.494 | 0.419 | 0.461
NCI-H1666 | 0.627 | 0.681 | 0.672 | 0.622 | 0.571 | 0.865 | 0.658 | 0.632 | 0.517 | 0.953 | 0.853 | 0.759 | 0.674 | 0.945 | 0.873 | 0.862 | 0.834 | 0.761
NCI-H1734 | 0.413 | 0.355 | 0.342 | 0.33 | 0.271 | 0.502 | 0.436 | 0.397 | 0.262 | 0.686 | 0.645 | 0.615 | 0.403 | 0.616 | 0.687 | 0.654 | 0.568 | 0.544
NCI-H1755 | 0.418 | 0.481 | 0.442 | 0.426 | 0.365 | 0.499 | 0.409 | 0.346 | 0.256 | 0.703 | 0.637 | 0.533 | 0.529 | 0.459 | 0.575 | 0.463 | 0.378 | 0.408
NCI-H1792 | 0.661 | 0.74 | 0.605 | 0.463 | 0.384 | 0.746 | 0.768 | 0.464 | 1.13 | 0.764 | 0.68 | 0.688 | 0.514 | 0.587 | 0.786 | 0.768 | 0.438 | 0.79
NCI-H1793 | 0.306 | 0.335 | 0.317 | 0.218 | 0.255 | 0.378 | 0.417 | 0.334 | 0.383 | 0.258 | 0.253 | 0.31 | 0.223 | 0.558 | 0.408 | 0.32 | 0.252 | 0.453
NCI-H1915 | 0.516 | 0.573 | 0.512 | 0.613 | 0.48 | 0.277 | 0.331 | 0.349 | 0.264 | 0.642 | 0.645 | 0.618 | 0.49 | 0.756 | 0.663 | 0.705 | 0.791 | 0.329
NCI-H1944 | 0.354 | 0.381 | 0.336 | 0.304 | 0.253 | 0.201 | 0.206 | 0.215 | 0.207 | 0.436 | 0.428 | 0.344 | 0.342 | 0.619 | 0.595 | 0.518 | 0.441 | 0.211
NCI-H1975 | 0.589 | 0.777 | 0.48 | 0.455 | 0.38 | 0.362 | 0.298 | 0.296 | 0.187 | 0.72 | 0.688 | 0.525 | 0.428 | 0.749 | 0.745 | 0.631 | 0.43 | 0.388
NCI-H1993 | 0.683 | 0.72 | 0.543 | 0.632 | 0.467 | 0.553 | 0.594 | 0.572 | 0.492 | 0.549 | 0.52 | 0.551 | 0.525 | 0.839 | 0.941 | 0.889 | 0.482 | 0.552
NCI-H2085 | 0.405 | 0.502 | 0.455 | 0.445 | 0.438 | 0.223 | 0.25 | 0.204 | 0.258 | 0.745 | 0.828 | 0.853 | 0.44 | 1.08 | 1.06 | 0.978 | 0.956 | 0.252
NCI-H2087 | 0.211 | 0.223 | 0.235 | 0.219 | 0.194 | 0.942 | 0.799 | 0.845 | 0.441 | 0.704 | 0.693 | 0.566 | 0.496 | 1.29 | 1.36 | 1.44 | 1.27 | 0.913
NCI-H2126 | 0.297 | 0.367 | 0.345 | 0.388 | 0.36 | 0.691 | 0.528 | 0.507 | 0.551 | 0.708 | 0.813 | 0.693 | 0.659 | 1 | 0.98 | 1.02 | 0.959 | 0.587
NCI-H2170 | 0.405 | 0.395 | 0.407 | 0.422 | 0.275 | 0.561 | 0.551 | 0.538 | 0.618 | 0.741 | 0.671 | 0.666 | 0.67 | 0.839 | 0.966 | 0.874 | 0.828 | 0.507
NCI-H2342 | 0.525 | 0.522 | 0.505 | 0.512 | 0.515 | 0.296 | 0.283 | 0.327 | 0.301 | 0.671 | 0.671 | 0.552 | 0.622 | 0.57 | 0.625 | 0.442 | 0.517 | 0.306
NCI-H2347 | 0.443 | 0.413 | 0.4 | 0.48 | 0.441 | 0.291 | 0.349 | 0.321 | 0.323 | 0.421 | 0.489 | 0.518 | 0.426 | 0.825 | 0.912 | 0.81 | 0.692 | 0.257
